Columns and labels:
[1] = tested on: Staphylococcus aureus (Newbould 305); test: Potentiation of lysostaphin bacteriostatic activity (minimum inhibitory concentration); type: cell-based; conditions: in saline, diluted in MHB
Description: Dissolved in 15% w/v poloxamer 407 NF is 512 μg/mL of lysostaphin by adding 487.4 μl of a 2.5 mg/mL aqueous solution to 1512.6 μl of the 15% w/v poloxamer 407 NF in sPBS. The lysostaphin is first filtered through a 0.22 μ filter and the concentration is adjusted (1.19 factor). The poloxamer 407 NF is mixed overnight and filtered through a 0.22μ cellulose acetate filter. In a similar fashion, preparations with other vehicles such as lysostaphin in triacetin are prepared.
Lysostaphin in Mueller-Hinton Broth is run as a control and a 512 μg/mL solution is prepared from the same 2.5 mg/mL solution as the poloxamer 407 NF mixture. Placed in 189 μl of Mueller-Hinton Broth is 61 μl of the 2.5 mg/mL solution.
Placed in the first well of a 12 well row is 100 μl of each mixture and serial two-fold dilutions are performed in Mueller-Hinton Broth through row 12. Following dilution, 50 μl of inoculum is added to each well. Inoculum is prepared by inoculating a tube of trypticase soy broth (TSB) from an overnight trypticase soy agar (TSA) culture containing a 10% sheep blood plate of Staphylococcus aureus (Newbould 305). The tube is incubated for 5 hours at 37° C. with constant agitation. […]
The inhibitory profile as measured by the reduction of the optical density at 650 nm in the presence of the vehicle is then compared to that of lysostaphin diluted in Mueller-Hinton Broth. […]

S. aureus = test: Potentiation of lysostaphin bactericidal activity (minimum bactericidal concentration assay, survival of S. aureus); type: cell-based, Staphylococcus aureus; conditions: 18 h
Description: Preparation of 50% glycerol and 15% poloxamer 407 NF plus lysostaphin is as follows: The lysostaphin stock of 2.5 mg/mL is thawed and filtered through a 0.22μ filter. [formula]
In a similar fashion, triacetin solutions are also prepared.
Mueller-Hinton Broth containing lysostaphin is prepared as above. Penicillin in Mueller-Hinton Broth is prepared to serve as a control. Starting with a frozen 2.5 mg/mL stock solution the penicillin is diluted as follows: 400 μl of 2.5 mg/mL is placed in 600 μl of Mueller-Hinton Broth to yield a 1000 μg/mL solution. Added to 3744 μl of Mueller-Hinton Broth is 256 μl of the 1000 μg/mL solution to yield a 64 μg/mL solution.
Placed in sterile tubes are 2 mL of the vehicle and lysostaphin; Mueller-Hinton Broth plus lysostaphin; and Mueller-Hinton Broth plus penicillin. Serial two-fold dilutions are performed by hand using 1 mL of the appropriate vehicle as the diluent. Lysostaphin and penicillin dilutions range from 64 μg/mL to 0.25 μg/mL. All combinations are done in duplicate. The Staphylococcus aureus is grown for 5 hours in 5 mL of TSB and 0.1 mL is removed and placed in 9.9 mL of saline. Each tube is inoculated with 100 μl of the diluted culture. Plate counts are performed on the inoculum. All tubes are incubated for 18 hours at 37° C. with constant agitation. Following incubation, each dilution of lysostaphin in the vehicles or Mueller-Hinton Broth and penicillin in Mueller-Hinton Broth is diluted in phosphate buffered saline to 10^-2, 10^-4 and 10^-6.
Plated on a TSA with 10% sheep blood is 100 μl of the undilute and of each dilution. The plates are inverted and incubated for 18 hours. Following incubation, the number of colonies on each plate is counted.
The vehicles which inhibit the growth or are moderately bactericidal to S. aureus by themselves are unable to be evaluated using the MIC procedure. For these vehicles a minimum bactericidal concentration assay (MBC) is performed. This assay in conjunction with the previous MIC data distinguish bacteriostatic effects versus bactericidal effects of the vehicles. Various formulations are mixed with lysostaphin at a final concentration of 32 μg/mL. Ten, serial two- or four-fold dilutions of the lysostaphin are performed in the vehicle and each tube inoculated with a 2-6 x's 106 S. aureus CFU's (bacterial colony-forming units). Samples are removed after 18 hours and plated on blood agar plates.

S. aureus mastitis = conditions: Oldham et al.; in words; cited from earlier work
[2] = tested on: 9C127 (T-cell hybridoma cell line); test: Toxicity of formulations on mammalian cell lines (cell viability, Coulter); type: cell-based, murine
Description: (§1) Cell Lines: A20: B-cell tumor cell line 9C127: T-cell hybridoma cell line LB/62287: B-cell lymphoma cell line P388.D1: Macrophage tumor cell line
(§2) Cell lines (1×10^5 /well; >85% viability) are cultured in 24 well flat bottom plates in RPMI® medium (Gibco Laboratories, Grand Island, N.Y.) supplemented with 10% fetal calf serum, streptomycin (100 μg/mL) and penicillin (100 U/mL). Cultures are incubated (37° C., 10% CO2) with the following concentrations of vehicles:
(§3) c) 1.0%, 0.1% or 0.01% Triacetin or IMWITOR®
(§4) After a 72 hour or 6 hour incubation period, cells are harvested and counted by the Coulter Counter (Northwell Drive, England). Cell viability is determined using a Coulter Channelyzer.
(§5) The relative toxicity of the sample formulations to estimate the relative degree of toxicity for in vivo administration is carried out in vitro with the mammalian cell lines. Various concentrations of the vehicles are incubated for either 6 or 24 hours with the different mammalian cell lines. Immediate toxicity is evaluated at 6 hours by quantitating the number of dead cells in treated wells as compared to the untreated controls. Long term toxicity effects as well as effects which may inhibit cell growth are evaluated by measuring the relative degree of proliferation after an additional 48 hours incubation with ^3 H-thymidine.

[3] = tested on: A20 (B-cell tumor cell line); test: as above; type: cell-based, murine
Description: as §1, §2, §3, §4, §5

[4] = tested on: P388.D1 (Macrophage tumor cell line); test: in vitro; type: cell-based, murine
Description: as §1, §2, §3, §4, §5

[5] = lysostaphin (or penicillin) 1 μg/mL
[6] = lysostaphin (or penicillin) 4 μg/mL

| Substance | Control MIC of lysostaphin ([1]; control of the PLURONIC F127 line) | Control MIC of lysostaphin ([1]; control of the triacetin line) | Survival of S. aureus CFU (Log 10) in Vehicles (S. aureus; lysostaphin 0.25 μg/mL) | Killing of S. aureus (footnote class) (S. aureus; lysostaphin 2 μg/mL) | Survival of S. aureus CFU (Log 10) in Vehicles (S. aureus; lysostaphin 2 μg/mL) | Killing of S. aureus (footnote class) (S. aureus; lysostaphin 8 μg/mL) | Survival of S. aureus CFU (Log 10) in Vehicles (S. aureus; lysostaphin (or penicillin) 0.5 μg/mL) | Killing of S. aureus (footnote class) (S. aureus; [5]) | Survival of S. aureus CFU (Log 10) in Vehicles (S. aureus; [5]) | Killing of S. aureus (footnote class) (S. aureus; [6]) | Survival of S. aureus CFU (Log 10) in Vehicles (S. aureus; [6]) | Survival of S. aureus CFU (Log 10) in Vehicles (S. aureus; lysostaphin (or penicillin) 8 μg/mL) | Therapeutic efficacy compared with CEFA-LAK (S. aureus mastitis) | Relative Toxicity at 6 Hours [2] | Relative Toxicity at 6 Hours [3] | Relative Toxicity at 6 Hours [4] |
| --- | --- | --- | --- | --- | --- | --- | --- | --- | --- | --- | --- | --- | --- | --- | --- | --- |
| Lysostaphin: gene product of Staphylococcus simulans, enzymatically degrading the polyglycine crosslinks of the cell wall | 0.125 | 1.0 | 9.7 CFU (Log 10) | ^3 (Greater than 99.99% killing of S. aureus) | 3.6 CFU (Log 10) | ^3 (Greater than 99.99% killing of S. aureus) | 8.6 CFU (Log 10) | ^2 (Greater than 95% killing of S. aureus) | 8.1 CFU (Log 10) | ^3 (Greater than 99.99% killing of S. aureus) | 4.8 CFU (Log 10) | 3.3 CFU (Log 10) | not equivalent to the commercially available product CEFA-LAK® |  |  |  |
| PLURONIC ® F 127 |  |  |  |  |  |  |  |  |  |  |  |  |  | - | - | - |

From US5342612A, “Compositions for the treatment of mammalian diseases” (priority 1991, dated 1994)
